These results are taken from patent publication US8349883B2, “Hydroxamate-based inhibitors of deacetylases B” (Novartis AG, priority 2008, dated 2013).

Molecules are shown by their SMILES.

One test concerns the target T1, HDAC-1 (Homo sapiens, UniProt Q13547).
T1 construct: made in house; host or cells: Sf9 or Sf21 insect cells (baculovirus, donor vector pFB-GSTX3)
Put plainly: HDAC inhibition assay (purified GST-HDAC protein). The test is classed as biochemical. The source says: The baculovirus donor vector pFB-GSTX3 was used to generate a recombinant baculovirus that can express the HDAC polypeptide. Transfer vectors containing the HDAC coding region were transfected into the DH10Bac cell line (GIBCO) and plated on selective agar plates. Colonies without insertion of the fusion sequence into the viral genome (carried by the bacteria) were blue. Single, white colonies were picked and viral DNAs (bacmid) were isolated from the bacteria by standard plasmid purification procedures. Sf9 cells or Sf21 (American Type Culture Collection) cells were then transfected in […] flasks with the viral DNA using Cellfectin reagent.
Virus-containing media was collected from the transfected cell culture and used for infection to increase its titer. Virus-containing media obtained after two rounds of infection was used for large-scale protein expression. For large-scale protein expression 100 cm^2 round tissue culture plates were seeded with 5×10^7 cells/plate and infected with 1 mL of virus-containing media (at an approximately MOI of 5). After 3 days, the cells were scraped off the plate and centrifuged at 500 rpm for 5 minutes. Cell pellets from 10-20, 100 cm^2 plates, were re-suspended in 50 mL of ice-cold lysis buffer (25 mM tris-HCl, pH 7.5, 2 mM EDTA, 1% NP-40, 1 mM DTT, 1 mM P MSF). The cells were stirred on ice for 15 minutes and then centrifuged at 5,000 rpms for 20 minutes.
The centrifuged cell lysate was loaded onto a 2 mL glutathione-sepharose column (Pharmacia) and was washed thrice with 10 mL of 25 mM tris-HCl, pH 7.5, 2 mM EDTA, 1 mM DTT, 200 mM NaCl. The GST-tagged proteins were then eluted by 10 applications (1 mL each) of 25 mM tris-HCl, pH 7.5, 10 mM reduced-glutathione, 100 mM NaCl, 1 mM DTT, 10% glycerol and stored at −70° C.
HDAC assays with purified GST-HDAC protein were carried out in a final volume of 30 μL containing 15 ng of GST-HDAC protein, 20 mM tris-HCl, pH 7.5, 1 mM MnCl2, 10 mM MgCl2, 1 mM DTT, 3 μg/mL poly(Glu,Tyr) 4:1, 1% DMSO, 2.0 μM ATP (γ-[^33P]-ATP 0.1 μCi). The activity was assayed in the presence or absence of inhibitors. The assay was carried out in 96-well plates at ambient temperature for 15 minutes under conditions described below and terminated by the addition of 20 μL of 125 mM EDTA. Subsequently, 40 μL of the reaction mixture were transferred onto EMMOBILON-PVDF membrane (Millipore) previously soaked for 5 minutes with methanol, rinsed with water, then soaked for 5 minutes with 0.5% H3PO4 and mounted on vacuum manifold with disconnected vacuum source. After spotting all samples, a vacuum was connected and each well rinsed with 200 μL 0.5% H3PO4. Membranes were removed and washed four times on a shaker with 1.0% H3PO4, once with ethanol. Membranes were counted after drying at ambient temperature, mounting in Packard TopCount 96-well frame, and addition of 10 μL/well of MICROSCINT™ (Packard). IC50 values were calculated by linear regression analysis of the percentage inhibition of each compound in duplicate, at 4 concentrations (usually 0.01, 0.1, 1 and 10 μM).
• Input: 3×4 μL stopped assay on IMMOBILON membrane, not washed • Background (3 wells): assay with H2O instead of enzyme • Positive control (4 wells): 3% DMSO instead of compound • Bath control (1 well): no reaction mix
IC50 values were calculated by logarithmic regression analysis of the percentage inhibition of each compound at 4 concentrations (usually 3- or 10-fold dilution series starting at 10 μM). In each experiment, the actual inhibition by reference compound was used for normalization of IC50 values to the basis of an average value of the reference inhibitor: Normalized IC50=measured IC50 average ref IC50/measured ref IC50
Example: Reference inhibitor in experiment 0.4 μM, average 0.3 μM, Test compound in experiment 1.0 μM, normalization: 0.3/0.4=0.75 μM
For example, known HDAC inhibitors or a synthetic derivative thereof may be used as reference compounds.

A further test relates to HCT116. Put plainly: HCT116 IC50. The test is classed as cell-based. Conditions: Homo sapiens, HCT-116.

T1 sequence (Q13547 whole entry, species assumed): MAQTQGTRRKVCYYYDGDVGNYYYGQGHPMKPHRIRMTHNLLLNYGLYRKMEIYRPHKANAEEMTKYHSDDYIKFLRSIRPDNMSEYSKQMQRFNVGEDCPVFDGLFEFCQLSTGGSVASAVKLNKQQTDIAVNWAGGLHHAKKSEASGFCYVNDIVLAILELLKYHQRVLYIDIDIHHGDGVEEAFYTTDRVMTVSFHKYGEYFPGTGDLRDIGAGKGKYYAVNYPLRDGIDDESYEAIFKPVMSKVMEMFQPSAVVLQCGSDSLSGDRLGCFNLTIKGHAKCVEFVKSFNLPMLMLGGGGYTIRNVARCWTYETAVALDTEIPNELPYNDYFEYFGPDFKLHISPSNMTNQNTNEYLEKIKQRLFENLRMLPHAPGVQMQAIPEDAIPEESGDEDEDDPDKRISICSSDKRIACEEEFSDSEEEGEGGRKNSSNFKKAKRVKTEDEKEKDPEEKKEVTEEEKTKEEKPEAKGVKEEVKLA

What is called IC50 is the point on the concentration scale where inhibition reaches its midpoint. The low end stands for inhibition by little substance, the high end for a need for much substance. Regarding `CCc1n[nH]c(CC)c1CCN1CCC[C@H]1c1ccc(/C=C/C(=O)NO)cc1` [Compound 99, (E)-3-(4-{(S)-1-[2-(3,5-Diethyl-1H-pyrazol-4-yl)-ethyl]-pyrrolidin-2-yl}-phenyl)-N-hydroxy-acrylamide], the IC50 against HDAC-1 was 0.8 nM; with HCT116, 1.4 nM.

In the case of `O=C(/C=C/c1ccc([C@@H]2CCCN2CCc2cnn3ccccc23)c(F)c1)NO` [Compound 91, (E)-3-{3-Fluoro-4-[(S)-1-(2-pyrazolo[1,5-a]pyridin-3-yl-ethyl)-pyrrolidin-2-yl]-phenyl}-N-hydroxy-acrylamide], the IC50 against HDAC-1 worked out at 4 nM; in the test on HCT116 it was 2 nM.

Turning to `O=C(/C=C/c1ccc(C2CCCN2CCn2ccc3ccccc32)cc1)NO` (stereo not drawn) [Compound 5, (E)-N-Hydroxy-3-{4-[1-(2-indol-1-yl-ethyl)-pyrrolidin-2-yl]-phenyl}-acrylamide], the IC50 turned out to be 6 nM on HDAC-1 and 10 nM in the test with HCT116.

With `Cc1ccn(CCN2CCC[C@H]2c2ccc(/C=C/C(=O)NO)cc2)n1` [Compound 71, (E)-N-Hydroxy-3-(4-{(S)-1-[2-(3-methyl-pyrazol-1-yl)-ethyl]-pyrrolidin-2-yl}-phenyl)-acrylamide], the IC50 on HDAC-1 was 55 nM; in the test with HCT116 it was 110 nM.

Take `C[Si](C)(C)Cn1cc(CCN2CCC[C@H]2c2ccc(/C=C/C(=O)NO)cc2)nn1` [Compound 77, (E)-N-Hydroxy-3-(4-{(S)-1-[2-(1-trimethylsilanylmethyl-1H-[1,2,3]triazol-4-yl)-ethyl]-pyrrolidin-2-yl}-phenyl)-acrylamide]: the IC50 at HDAC-1 is 25 nM; with HCT116, 110 nM.

Regarding `O=C(/C=C/c1ccc(C2CCCN2CCc2c(-c3ccccc3)[nH]c3ccccc23)cc1)NO` (stereo not drawn) [Compound 7, (E)-N-Hydroxy-3-(4-{1-[2-(2-phenyl-1H-indol-3-yl)-ethyl]-pyrrolidin-2-yl}-phenyl)-acrylamide], the IC50 at HDAC-1 came out at 12 nM; with HCT116, 3 nM.

As for `CC(C)(O)c1nn2ccccc2c1CCN1CCC[C@@H]1c1ccc(CCC(=O)NO)cc1` [Compound 120, N-Hydroxy-3-[4-((R)-1-{2-[2-(1-hydroxy-1-methyl-ethyl)-pyrazolo[1,5-a]pyridin-3-yl]-ethyl}-pyrrolidin-2-yl)-phenyl]-propionamide], the IC50 against HDAC-1 came out at 75 nM; with HCT116, 510 nM.

With `O=C(/C=C/c1ccc([C@@H]2CCCN2CCc2c(C(F)(F)F)nn3ccccc23)cc1)NO` [Compound 46, (E)-N-Hydroxy-3-(4-{(S)-1-[2-(2-trifluoromethyl-pyrazolo[1,5-a]pyridin-3-yl)-ethyl]-pyrrolidin-2-yl}-phenyl)-acrylamide], the IC50 at HDAC-1 came out at 3 nM; in the test with HCT116, 0.6 nM.

As to `Cc1ccc(C(O)CN2CCCC2c2ccc(/C=C/C(=O)NO)cc2)cc1` (stereo not drawn) [Compound 29, (E)-N-Hydroxy-3-{4-[1-(2-hydroxy-2-p-tolyl-ethyl)-pyrrolidin-2-yl]-phenyl}-acrylamide], the half-maximal inhibitory concentration (IC50) came out at 8 nM at HDAC-1 and 40 nM with HCT116.

As to `O=C(/C=C/c1ccc(C2CCCN2CCc2ccccc2Cl)cc1)NO` (stereo not drawn) [Compound 25, (E)-3-(4-{1-[2-(2-Chloro-phenyl)-ethyl]-pyrrolidin-2-yl}-phenyl)-N-hydroxy-acrylamide], the results for the IC50 against HDAC-1 and in the test with HCT116 were 5 nM and 7 nM, respectively.

Turning to `CC(C)n1nnnc1CCN1CCC[C@H]1c1ccc(CCC(=O)NO)cc1` [Compound 115, N-Hydroxy-3-(4-{(S)-1-[2-(1-isopropyl-1H-tetrazol-5-yl)-ethyl]-pyrrolidin-2-yl}-phenyl)-propionamide], the IC50 against HDAC-1 was 25 nM; in the test on HCT116, 32 nM.

In the case of `O=C(/C=C/c1ccc(C2CCCN2CCc2ccc([N+](=O)[O-])cc2)cc1)NO` (stereo not drawn) [Compound 24, (E)-N-Hydroxy-3-(4-{1-[2-(4-nitro-phenyl)-ethyl]-pyrrolidin-2-yl}-phenyl)-acrylamide], the IC50 at HDAC-1 was 8 nM; with HCT116, 43 nM.
